This is an account of results in PMC6274529, “Flavonoids-Rich Orthosiphon stamineus Extract as New Candidate for Angiotensin I-Converting Enzyme Inhibition: A Molecular Docking Study” (Molecules, 2016).

“And” between values parts separate entries of the source, which are not always exact repeats. Equal entries are not always repeated. Where two headings read alike, the source gives them in different places.

A short description of assay [1]: Chelation of zinc (II) ion by tetramethylmurexide reagent. The format is physicochemical. The conditions noted are these: hexamine/HCl buffer pH 5.0, mean ± SD. As to the method:
Therefore, this extract was selected to study its chelation ability with zinc (II) ion. […]. Based on this standard curve, the amount of metal ions bound by the compound tested was evaluated. […].
Briefly, 0.01 M hexamine/HCl buffer was prepared at pH 5.0 with addition of 0.01 M KCl. Stock solution of captopril. […] A series of working sample solutions were prepared by diluting the stock solutions with hexamine/HCl buffer (0–5 mg/mL). ZnCl2 was prepared in the same buffer at concentration of 0.8 mM. Then, 1 mL of sample solutions was mixed with 1 mL ZnCl2 solution and 0.1 mL tetramethylmurexide at concentration of 1 mM. Absorbance was recorded at 462 nm and 530 nm and then the ratio of A462/A530 was calculated. Distilled deionized water was used instead of tetramethylmurexide reagent in control samples. A standard curve of absorbance ratio versus metal ions concentrations (0 to 3.2 mM) was prepared and the percentage of bound metal ions was calculated. Percentage of bond with Zn^2+ = 1 − (Concentration of free Zn^2+/Concentration of total Zn^2+) × 100(4)

Assay [2] deals with T1, ACE enzyme (from rabbit lung) (Oryctolagus cuniculus, UniProt P12822).
T1 sequence (P12822 34-1310): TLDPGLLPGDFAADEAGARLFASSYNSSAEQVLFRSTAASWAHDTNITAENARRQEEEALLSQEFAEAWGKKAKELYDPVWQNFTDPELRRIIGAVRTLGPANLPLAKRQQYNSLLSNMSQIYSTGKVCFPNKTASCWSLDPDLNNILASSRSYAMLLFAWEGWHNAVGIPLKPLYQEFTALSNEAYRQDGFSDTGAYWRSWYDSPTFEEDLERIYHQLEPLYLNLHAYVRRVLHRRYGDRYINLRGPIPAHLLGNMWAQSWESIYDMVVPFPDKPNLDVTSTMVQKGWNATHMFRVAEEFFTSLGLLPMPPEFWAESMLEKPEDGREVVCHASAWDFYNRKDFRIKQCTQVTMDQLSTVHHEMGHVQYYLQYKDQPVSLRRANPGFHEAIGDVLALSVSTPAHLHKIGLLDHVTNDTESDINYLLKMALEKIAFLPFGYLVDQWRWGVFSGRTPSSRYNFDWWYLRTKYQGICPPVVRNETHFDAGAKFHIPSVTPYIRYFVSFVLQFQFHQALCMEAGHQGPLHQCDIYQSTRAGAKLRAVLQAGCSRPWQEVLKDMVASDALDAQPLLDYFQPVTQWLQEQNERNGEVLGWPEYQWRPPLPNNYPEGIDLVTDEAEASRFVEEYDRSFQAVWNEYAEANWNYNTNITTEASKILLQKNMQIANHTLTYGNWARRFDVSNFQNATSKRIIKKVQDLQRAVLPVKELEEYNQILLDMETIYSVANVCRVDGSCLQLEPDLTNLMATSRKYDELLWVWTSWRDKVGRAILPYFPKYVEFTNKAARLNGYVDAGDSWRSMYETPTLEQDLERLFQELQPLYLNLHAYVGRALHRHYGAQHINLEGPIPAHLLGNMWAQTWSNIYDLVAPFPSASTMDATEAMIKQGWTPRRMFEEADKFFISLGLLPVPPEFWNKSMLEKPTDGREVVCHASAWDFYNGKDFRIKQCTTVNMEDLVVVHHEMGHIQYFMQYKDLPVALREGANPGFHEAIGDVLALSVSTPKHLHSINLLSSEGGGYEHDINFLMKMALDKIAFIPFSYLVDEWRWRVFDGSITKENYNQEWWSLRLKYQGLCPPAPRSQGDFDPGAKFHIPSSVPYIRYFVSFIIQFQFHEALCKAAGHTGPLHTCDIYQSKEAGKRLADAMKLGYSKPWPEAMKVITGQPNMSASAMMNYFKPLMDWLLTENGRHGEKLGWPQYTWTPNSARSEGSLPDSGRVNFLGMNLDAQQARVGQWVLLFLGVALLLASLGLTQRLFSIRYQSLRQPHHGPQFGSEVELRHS
The experiment in a line: In vitro ACE inhibition activity (HA formation from HHL, HPLC-UV).
Description: This method relies on determining hippuric acid (HA) formation from ACE-specific substrate hippuryl-histidyl-leucine (HHL) by the action of ACE enzyme, resulting in the removal of C-terminal dipeptide histidylleucine.
The high performance liquid chromatography (HPLC) was performed using an Agilent Technologies (Series 1200 infinity, Frankfurt, Germany) system. Separations were accomplished on a Zorbax Eclipse plus phenyl-hexyl (4.6 mm × 250 mm, 5 µm, Agilent) and the column temperature was maintained at 30 °C. Substrates of HA and HHL were detected at 228 nm. The flow rate was set at 0.6 mL/min and injection volume was 10 μL. The mobile phase consisted of 20% acetonitrile and 80% of 0.1% ammonium dihydrogen phosphate buffer was used in this analysis with 10 min separation time.
For substrate HHL hydrolysis catalyzed by purified rabbit ACE enzyme, the total reaction volume was 200 µL. Phosphate buffer (pH 8.3) was used to dilute the substrate HHL and rabbit lung ACE enzyme. […] The reaction mixtures were incubated for 2 h at 37 °C. The reaction was terminated by heating the samples at 100 °C in water bath, and then 800 µL of water was added to all samples, and they were analyzed by stated HPLC method.
HHL as substrate was prepared freshly in 10 mM phosphate buffer pH 8.3 and then sonicated for 30 min. […] Angiotensin converting enzyme (ACE) was prepared at 0.05 U/mL in phosphate buffer pH 8.3 containing 0.1% bovine serum albumin (BSA). Then, 50 µL of purified ACE enzyme and 20 µL extracts, reference compounds or captopril at different concentrations were added to 130 µL of HHL substrate. Control reaction mixture was contained 20 µL of 50% ethanol instead of extracts. All samples were incubated for 2 h at 37 °C. The reaction was stopped by heating the samples at 100 °C. All samples were analyzed by HPLC after adding 800 µL of water. ACE inhibition rate was calculated by the following equation: ACE inhibition activity of test substances (%) = [(HA concentration levels without test substances) − (HA concentration levels with test substances)/(HA concentration levels without test substances)] × 100 (3)

In the case of `C[C@H](CS)C(=O)N1CCC[C@H]1C(=O)O` [Captopril, captopril], in assay [1] (at concentration of 4 mg/mL), the “Zn (II) chelating activity (percentage of bound Zn (II))” value (“Zn … (percentage of bound Zn (II))” for short) is 100% ± 1.59%.
The term IC50 denotes the concentration needed to halve the response being measured. A higher IC50 goes with a need for much substance. For `COc1ccc(-c2cc(=O)c3c(O)c(OC)c(OC)cc3o2)cc1O` [EUP, eupatorin], in assay [2] (IC50 on in vitro ACE inhibitory assay, purified rabbit lung ACE, HHL substrate, 2 h at 37 °C, mean ± SD (n = 3)), the concentration for half-maximal inhibition (IC50) was 44.6 µM and 44.7 µM. In addition, the “Zn … (percentage of bound Zn (II))” value in assay [1] (at concentration of 5 mg/mL) was 56.03% ± 1.26%.
In assay [2], `O=C(/C=C/c1ccc(O)c(O)c1)O[C@H](Cc1ccc(O)c(O)c1)C(=O)O` [RA, rosmarinic acid] had an IC50 of 52.2 µM.
In assay [2], `COc1ccc(-c2cc(=O)c3c(OC)c(OC)c(OC)cc3o2)cc1OC` [SIN, sinensetin] showed an IC50 of 79.2 µM. For the same molecule, the “Zn … (percentage of bound Zn (II))” value in assay [1] (at concentration of 5 mg/mL) is reported as 6.71% ± 0.62%.
In turn, `COc1ccc(-c2cc(=O)c3c(OC)c(OC)c(OC)cc3o2)cc1O` [TMF, 3′-hydroxy-5,6,7,4′-tetramethoxyflavone] gave an IC50 in assay [2] of 77.9 µM. This counts as double-digit micromolar.
